Source: patent US11040026B2, “Muscarinic M1 receptor positive allosteric modulators” (SUVEN LIFE SCIENCES LIMITED, priority 2016, dated 2021)

Key:
[1] = Rodent brain penetration study; format: in vivo, Male Wistar rats; settings: male, Wistar, brain and plasma, po; rat, 3 mg/kg, p.o., brain-plasma ratio; read-out: Single dose Rat Brain Penetration (Cb/Cp) at 3 mg/kg, p.o.
Description: Rodent Brain Penetration Study
Male Wistar rats (260±40 grams) were used as experimental animals. Three animals were housed in each cage. Animals were given water and food ad libitum throughout the experiment and maintained on a 12 hours light/dark cycle.
Brain penetration was determined in discrete manner in rats. One day prior to dosing day, male Wistar rats were acclimatized and randomly grouped according to their weight. At each time point (0.50, 1 and 2 hours) n=3 animals were used.
The test compounds were suitably preformulated and administered orally at (free base equivalent) 3 mg/kg. Blood samples were removed via cardiac puncture by using isoflurane anesthesia. The animals were sacrificed to collect brain tissue. Plasma was separated and brain samples were homogenized and stored frozen at −20° C. until analysis. The concentrations of the test compounds in plasma and brain were determined using LC-MS/MS method.
The test compounds were quantified in plasma and brain homogenate by qualified LC-MS/MS method using suitable extraction technique. The test compounds were quantified in the calibration range of 1-500 ng/mL in plasma and brain homogenate. Study samples were analyzed using calibration samples in the batch and quality control samples spread across the batch. Extent of brain-plasma ratio (Cb/Cp) was calculated

[2] = Rodent pharmacokinetic study; format: in vivo, Male Wistar rats; settings: rat; for AUC(0-t) / clearance / half-life / Cmax: male, Wistar, plasma; for F: oral (gavage) 3 mg/kg vs intravenous 1 mg/kg
Description: Rodent Pharmacokinetic Study
Male Wistar rats (260±50 grams) were used as experimental animals. Animals were housed individually in polypropylene cage. Two days prior to study, male Wistar rats were anesthetized with isoflurane for surgical placement of jugular vein catheter. Rats were randomly divided for oral (3 mg/kg) and intravenous (1 mg/kg) dosing (n=3/group) and fasted overnight before oral dosing (p.o.). However, rats allocated to intravenous dosing food and water was provided ad libitum.
At pre-determined point, blood was collected through jugular vein and replenished with an equivalent volume of normal saline. Collected blood was transferred into a labeled eppendorf tube containing 10 μL of heparin as an anticoagulant. Typically blood samples were collected at following time points: 0.08, 0.25, 0.5, 1, 2, 4, 6, 8, and 24 hours post dose. Blood was centrifuged at 4000 rpm for 10 minutes. Plasma was separated and stored frozen at −80° C. until analysis. The concentrations of the test compounds were quantified in plasma by qualified LC-MS/MS method using suitable extraction technique. The test compounds were quantified in the calibration range around 1-1000 ng/mL in plasma. Study samples were analyzed using calibration samples in the batch and quality control samples spread across the batch.
Pharmacokinetic parameters Cmax, AUCt, T1/2, Clearance and Bioavailability (F) were calculated by non-compartmental model using standard non-compartmental model by using Phoenix WinNonlin 6.0.4 version Software package.

[3] = target: T1, muscarinic M1 receptor (Homo sapiens, UniProt P11229); experiment: Allosteric potency EC50 for muscarinic M1 receptor (CHO pCRE-Luc reporter assay); format: cell-based; settings: in presence of EC20 of acetylcholine; CHO cells, luciferase reporter, 4 hours
T1 sequence (P11229 1-460): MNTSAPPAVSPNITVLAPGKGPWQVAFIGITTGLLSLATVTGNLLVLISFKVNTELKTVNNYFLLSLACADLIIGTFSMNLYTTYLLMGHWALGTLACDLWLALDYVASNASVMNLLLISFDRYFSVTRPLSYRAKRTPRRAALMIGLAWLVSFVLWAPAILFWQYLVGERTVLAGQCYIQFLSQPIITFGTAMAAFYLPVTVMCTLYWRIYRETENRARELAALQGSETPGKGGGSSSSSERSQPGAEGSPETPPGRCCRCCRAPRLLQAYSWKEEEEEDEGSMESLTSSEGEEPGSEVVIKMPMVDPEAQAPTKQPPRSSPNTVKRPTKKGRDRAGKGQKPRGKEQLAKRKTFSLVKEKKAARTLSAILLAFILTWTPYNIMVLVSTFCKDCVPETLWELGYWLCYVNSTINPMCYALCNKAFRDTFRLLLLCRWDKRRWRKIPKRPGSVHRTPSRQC
Description: Determination of Allosteric Potency EC50 Values for Muscarinic M1 Receptor:
A stable CHO cell line expressing recombinant human Muscarinic M1 receptor and pCRE-Luc reporter system was used for cell-based assay. The assay offers a non-radioactive based approach to determine binding of a compound to GPCRs. In this specific assay, the level of intracellular cyclic AMP which is modulated by activation or inhibition of the receptor is measured. The recombinant cells harbor luciferase reporter gene under the control of cyclic AMP response element.
The above cells were grown in 96 well clear bottom white plates in Hams F12 medium containing 10% fetal bovine serum (FBS). Prior to the addition of compounds or standard agonist, cells were serum starved overnight. Increasing concentrations of test compounds were added along with EC20 of acetylcholine in OptiMEM medium to the cells. The incubation was continued at 37° C. in CO2 incubator for 4 hours. Medium was removed and cells were washed with phosphate buffered saline. The cells were lysed and luciferase activity was measured in a Luminometer. Luminescence units were plotted against the compound concentrations using Graphpad software. EC50 values of the compounds were defined as the concentration required in stimulating the luciferase activity by 50% in presence of EC20 of acetylcholine and the results are provided in table 1.

[4] = system: Male Wistar rats; experiment: Object recognition task model; format: in vivo; settings: rat, p.o.; for Exploration time mean ± S.E.M, Familiar object / Exploration time mean ± S.E.M, Novel object: choice trial 24 hours after T1
Description: Object Recognition Task Model
Male Wistar rats (8-10 weeks old) were used as experimental animals. Four animals were housed in each cage. Animals were kept on 20% food deprivation from a day prior to experimentation. Water was provided ad libitum throughout the experiment. Animals were maintained on a 12 hours light/dark cycle in temperature and humidity controlled room. The experiment was carried out in an circular or square arena made up of acrylic. Rats were habituated to individual arenas for up to 1 hour in the absence of any objects on day 1.
One group of 12 rats received vehicle and another set of animals received test compounds, before familiar (T1) and choice (T2) trials. During the familiarization phase, (T1), the rats were placed individually in the arena for 3 minutes, in which two identical objects (a1 and a2) were positioned 10 cm from the wall. 24 hours after T1, trial for long-term memory test was performed. The same rats were placed in the same arena as they were placed in T1 trial. During the choice phase (T2) rats were allowed to explore the arena for 3 minutes in presence of a copy of familiar object (a3) and one novel object (b). During the T1 and T2 trial, explorations of each object (defined as sniffing, licking, chewing or having moving vibrissae whilst directing the nose towards the object at a distance of less than 1 cm) were recorded using stopwatch.
T1 is the total time spent exploring the familiar objects (a1+a2).
T2 is the total time spent exploring the familiar object and novel object (a3+b).
The object recognition test was performed as described in Behav. Brain Res., 1988, 31, 47-59.

Structure (SMILES): Cn1ccc2c(Cc3ccc(F)cc3)cc(C(=O)N[C@@H]3COCC[C@@H]3O)nc21 (single isomer, unassigned; isomer-i) [Example 65, cis-N-(4-Hydroxytetrahydropyran-3-yl)-4-(4-fluorobenzyl)-1-methyl-1H-pyrrolo[2,3-b]pyridine-6-carboxamide (Isomer-I)]
- Kp [1]: 0.32

Structure (SMILES): CN1CCOc2c(Cc3ccc(F)cc3)cc(C(=O)N[C@@H]3CCOC[C@H]3O)nc21 (single isomer, unassigned; isomer-ii) [Example 124, trans-N-(3-Hydroxytetrahydropyran-4-yl)-8-(4-fluorobenzyl)-4-methyl-2H-pyrido[3,2-b][1,4]oxazine-6-carboxamide (Isomer-II)]
- Kp [1]: 0.52 ± 0.05
- AUC(0-t) ([2]; intravenous (bolus), 1 mg/kg): 787 ± 130 ng·h/mL
- clearance ([2]; intravenous (bolus), 1 mg/kg): 21 ± 3 mL/min/kg
- half-life ([2]; intravenous (bolus), 1 mg/kg): 1.1 ± 0.1 h
- AUC(0-t) ([2]; oral (gavage), 3 mg/kg): 526 ± 126 ng·h/mL
- Cmax ([2]; oral (gavage), 3 mg/kg): 306 ± 66 ng/mL
- half-life ([2]; oral (gavage), 3 mg/kg): 0.5 h
- F [2]: 22 ± 5%

Structure (SMILES): Cn1ccc2c(Cc3ccc(Cl)nc3)cc(C(=O)N[C@H]3CCCC[C@@H]3O)nc21 [Example 18, N-[(1S,2S)-2-Hydroxycyclohexyl]-4-(2-chloropyridin-5-ylmethyl)-1-methyl-1H-pyrrolo[2,3-b]pyridine-6-carboxamide]
- EC50 [3]: 38 nM
- Inference ([4]; 10 mg/kg): Active
- Exploration time mean ± S.E.M, Familiar object ([4]; 10 mg/kg): 8.00 ± 2.88 s
- Exploration time mean ± S.E.M, Novel object ([4]; 10 mg/kg): 14.38 ± 1.62 s
- Kp [1]: 0.27 ± 0.06
- AUC(0-t) ([2]; intravenous (bolus), 1 mg/kg): 853 ± 109 ng·h/mL
- clearance ([2]; intravenous (bolus), 1 mg/kg): 20 ± 3 mL/min/kg
- half-life ([2]; intravenous (bolus), 1 mg/kg): 1.3 ± 0.2 h
- AUC(0-t) ([2]; oral (gavage), 3 mg/kg): 2710 ± 769 ng·h/mL
- Cmax ([2]; oral (gavage), 3 mg/kg): 887 ± 74 ng/mL
- half-life ([2]; oral (gavage), 3 mg/kg): 3.6 ± 0.1 h
- F [2]: 106 ± 30%

Structure (SMILES): CN1CCc2c(Cc3ccnc(F)c3)cc(C(=O)N[C@H]3CCCC[C@@H]3O)nc21 [Example 73, N-[(1S,2S)-2-Hydroxycyclohexyl]-4-(2-fluoropyridin-4-ylmethyl)-1-methyl-2,3-dihydro-1H-pyrrolo[2,3-b]pyridine-6-carboxamide]
- EC50 [3]: 786 nM
- AUC(0-t) ([2]; intravenous (bolus), 1 mg/kg): 742 ± 40 ng·h/mL
- clearance ([2]; intravenous (bolus), 1 mg/kg): 22 ± 1 mL/min/kg
- half-life ([2]; intravenous (bolus), 1 mg/kg): 1.1 ± 0.3 h
- AUC(0-t) ([2]; oral (gavage), 3 mg/kg): 1740 ± 296 ng·h/mL
- Cmax ([2]; oral (gavage), 3 mg/kg): 1100 ± 85 ng/mL
- half-life ([2]; oral (gavage), 3 mg/kg): 1.2 ± 0.1 h
- F [2]: 78 ± 13%

Structure (SMILES): Cl.O=C(N[C@H]1CCCC[C@@H]1O)c1cc(Cc2ccc(F)cc2)c2c(n1)CNCC2 [Example 87, N-[(1S,2S)-2-Hydroxycyclohexyl]-4-(4-fluorobenzyl)-5,6,7,8-tetrahydro[1,7]naphthyridine-2-carboxamide Hydrochloride]
- EC50 [3]: 241 nM
- Kp [1]: 0.15 ± 0.01
- AUC(0-t) ([2]; intravenous (bolus), 1 mg/kg): 224 ± 66 ng·h/mL
- clearance ([2]; intravenous (bolus), 1 mg/kg): 79 ± 27 mL/min/kg
- half-life ([2]; intravenous (bolus), 1 mg/kg): 1.5 ± 0.1 h
- AUC(0-t) ([2]; oral (gavage), 3 mg/kg): 219 ± 70 ng·h/mL
- Cmax ([2]; oral (gavage), 3 mg/kg): 97 ± 39 ng/mL
- half-life ([2]; oral (gavage), 3 mg/kg): 0.7 ± 0.3 h
- F [2]: 32 ± 10%

Structure (SMILES): O=C(N[C@H]1CCCC[C@@H]1O)c1cc(Cc2ccc(F)cc2)c2c(n1)OCCO2 [Example 103, N-[(1S,2S)-2-Hydroxycyclohexyl]-8-(4-fluorobenzyl)-2,3-dihydro-[1,4]dioxino[2,3-b]pyridine-6-carboxamide]
- EC50 [3]: 131 nM
- Inference ([4]; 3 mg/kg): Active
- Exploration time mean ± S.E.M, Familiar object ([4]; 3 mg/kg): 12.20 ± 1.59 s
- Exploration time mean ± S.E.M, Novel object ([4]; 3 mg/kg): 19.17 ± 3.01 s
- Kp [1]: 0.63 ± 0.05
- AUC(0-t) ([2]; intravenous (bolus), 1 mg/kg): 791 ± 11 ng·h/mL
- clearance ([2]; intravenous (bolus), 1 mg/kg): 21 mL/min/kg
- half-life ([2]; intravenous (bolus), 1 mg/kg): 0.7 ± 0.1 h
- AUC(0-t) ([2]; oral (gavage), 3 mg/kg): 1090 ± 102 ng·h/mL
- Cmax ([2]; oral (gavage), 3 mg/kg): 825 ± 41 ng/mL
- half-life ([2]; oral (gavage), 3 mg/kg): 0.5 ± 0.2 h
- F [2]: 46 ± 4%

Structure (SMILES): CN1CCOc2c(Cc3ccc(F)cc3)cc(C(=O)N[C@H]3CCCC[C@@H]3O)nc21 [Example 120, N-[(1S,2S)-2-Hydroxycyclohexyl]-8-(4-fluorobenzyl)-4-methyl-2H-pyrido[3,2-b][1,4]oxazine-6-carboxamide]
- EC50 [3]: 407 nM
- Inference ([4]; 10 mg/kg): Active
- Exploration time mean ± S.E.M, Familiar object ([4]; 10 mg/kg): 10.48 ± 1.02 s
- Exploration time mean ± S.E.M, Novel object ([4]; 10 mg/kg): 15.43 ± 1.23 s
- Kp [1]: 1.37 ± 0.1
- AUC(0-t) ([2]; intravenous (bolus), 1 mg/kg): 593 ± 79 ng·h/mL
- clearance ([2]; intravenous (bolus), 1 mg/kg): 28 ± 4 mL/min/kg
- half-life ([2]; intravenous (bolus), 1 mg/kg): 1.2 ± 0.3 h
- AUC(0-t) ([2]; oral (gavage), 3 mg/kg): 234 ± 76 ng·h/mL
- Cmax ([2]; oral (gavage), 3 mg/kg): 69 ± 12 ng/mL
- half-life ([2]; oral (gavage), 3 mg/kg): 3.5 ± 3.3 h
- F [2]: 13 ± 4%

Structure (SMILES): CN1CCOc2c(Cc3ccc(-c4cnn(C)c4)cc3)cc(C(=O)N[C@H]3CCCC[C@@H]3O)nc21 [Example 122, N-[(1S,2S)-2-Hydroxycyclohexyl]-8-[4-(1-methyl-1H-pyrazol-4-yl)benzyl]-4-methyl-2H-pyrido[3,2-b][1,4]oxazine-6-carboxamide]
- EC50 [3]: 85 nM

Structure (SMILES): COc1ccc(Cc2cc(C(=O)N[C@H]3CCCC[C@@H]3O)nc3c2OCCN3C)cc1 [Example 127, N-[(1S,2S)-2-Hydroxycyclohexyl]-8-(4-methoxybenzyl)-4-methyl-2H-pyrido[3,2-b][1,4]oxazine-6-carboxamide]
- EC50 [3]: 946 nM

Structure (SMILES): CN1CCOc2c(Cc3ccc(-n4cccn4)cc3)cc(C(=O)N[C@H]3CCCC[C@@H]3O)nc21 [Example 129, N-[(1S,2S)-2-Hydroxycyclohexyl]-8-[4-pyrazol-1-ylbenzyl]-4-methyl-2H-pyrido[3,2-b][1,4]oxazine-6-carboxamide]
- EC50 [3]: 15 nM

Structure (SMILES): Cn1ccc2nc(C(=O)N[C@H]3CCCC[C@@H]3O)cc(Cc3ccc(F)cc3)c21 [Example 137, N-[(1S,2S)-2-Hydroxycyclohexyl]-7-(4-fluorobenzyl)-1-methyl-1H-pyrrolo[3,2-b]pyridine-5-carboxamide]
- EC50 [3]: 641 nM
